Data as given in patent US10780092B2, “Fused pyrazine derivatives useful as soluble guanylate cyclase stimulators” (Merck Sharp & Dohme Corp., priority 2016, dated 2020).
pEC50, pKi: −log10 of the molar value.

What was measured:
[1] = biological target: human recombinant sGC enzyme (Homo sapiens (Human), UniProt Q02108+Q02153); assay: SEC competition binding assay with [3H] Compound B radioligand; conditions: displacement of 1.6 nM [3H] Compound B, 24 h at 37° C.
Procedure, shortened: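 Competition format: [3H] Compound B (1.6 nM) displaced from human recombinant sGC over 24 h at 37° C. in triethanolamine pH 7.4 buffer with MgCl2, BSA, DTT, 300 μM DETA/NO and 400 μM GTP (1% DMSO). Gel-filtration eluates counted by liquid scintillation; 1 μM Compound B defined non-specific binding; Ki by one-site fit.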

sGC α1/β1 heterodimer = sGC α1/β1 heterodimer (Homo sapiens (Human), UniProt Q02108+Q02153); assay: Cell-based sGC functional assay (CASA assay), cGMP by HTRF; conditions: CHO-K1/sGC cells; for Emax: CHO-K1, cGMP production as percentage of maximum of compound A (set to 100%), read-out: % Activation; for pEC50: inflection point of cGMP production, 4P fit, read-out: IP
Procedure, shortened: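 cGMP made in CHO-K1/sGC (human α1/β1) cells is read by HTRF after compound treatment for 1 hr at 37° C, following 30 min at 25° C with or without 1 μM DETA-NO; IBMX 0.5 mM present. Values are % of standard compound maximum; 4P fit.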

| SMILES | pKi [1] | Emax (sGC α1/β1 heterodimer) [%] | pEC50 (sGC α1/β1 heterodimer) |
| --- | --- | --- | --- |
| CC1(c2cccc(O)c2)C(=O)Nc2nc(-c3cn4ccnc4c(Cc4cc(F)cc(F)c4)n3)nc(N)c21 (stereo not drawn) [Example 48-B, 4-Amino-2-{8-[(3,5-difluorophenyl)methyl]imidazo[1,2-a]pyrazin-6-yl}-5-(3-hydroxyphenyl)-5-methyl-5,7-dihydro-6H-pyrrolo[2,3-d]pyrimidin-6-one] | 9.14 | 114 | 6.70 |
| CC1(c2ccc(F)c(O)c2)C(=O)Nc2nc(-c3cn4ccnc4c(Cc4ccc(F)cc4F)n3)nc(N)c21 (stereo not drawn) [Example 22-B, 4-Amino-2-{8-[(2,4-difluorophenyl)methyl]imidazo[1,2-a]pyrazin-6-yl}-5-(4-fluoro-3-hydroxyphenyl)-5-methyl-5,7-dihydro-6H-pyrrolo[2,3-d]pyrimidin-6-one] | 9.67 | 128 | 7.13 |
| CC1(c2ccc(Cl)c(O)c2)C(=O)Nc2nc(-c3cn4ncnc4c(CCC(F)(F)C(F)(F)F)n3)nc(N3CCC(C(F)(F)F)CC3)c21 (stereo not drawn) [Example 137-A, 5-(4-Chloro-3-hydroxy-phenyl)-5-methyl-2-(8-(3,3,4,4,4-pentafluoro-butyl)-[1,2,4]triazolo-[1,5-a]pyrazin-6-yl)-4-(4-(trifluoromethyl)-piperidin-1-yl)-5,7-dihydro-6H-pyrrolo-[2,3-d]pyrimidin-6-one] | 8.58 | 99 | 6.13 |
| CC1(c2cccc(O)c2)C(=O)Nc2nc(-c3cn4ccnc4c(CCC(F)(F)C(F)(F)F)n3)nc(N)c21 (stereo not drawn) [Example 79-B, 4-Amino-5-(3-hydroxyphenyl)-5-methyl-2-(8-(3,3,4,4,4-pentafluorobutyl)imidazo[1,2-a]pyrazin-6-yl)-5,7-dihydro-6H-pyrrolo[2,3-d]pyrimidin-6-one] | 8.03 | 108 | 7.02 |
| CCCCc1nc(-c2nc(N)c3c(n2)NC(=O)C3(C)c2ccc(O)cc2)cn2ncnc12 (stereo not drawn) [Example 70-B, 4-Amino-2-(8-butyl-[1,2,4]triazolo[1,5-a]pyrazin-6-yl)-5-(4-hydroxyphenyl)-5-methyl-5,7-dihydro-6H-pyrrolo[2,3-d]pyrimidin-6-one] | 8.40 | 81 | 7.49 |
| CC1(c2cccc(O)c2)C(=O)Nc2nc(-c3cn4ccnc4c(Cc4ccc(F)cc4)n3)nc(N)c21 (stereo not drawn) [Example 31-B, 4-Amino-2-{8-[(4-fluorophenyl)methyl]imidazo[1,2-a]pyrazin-6-yl}-5-(3-hydroxyphenyl)-5-methyl-5,7-dihydro-6H-pyrrolo[2,3-d]pyrimidin-6-one] | 9.56 | 93 | 7.09 |
| CCCCc1nc(-c2nc(N)c3c(n2)NC(=O)C3(C)c2cccc(O)c2)cn2ncnc12 (stereo not drawn) [Example 68-B, 4-Amino-2-(8-butyl-[1,2,4]triazolo[1,5-a]pyrazin-6-yl)-5-(3-hydroxyphenyl)-5-methyl-5,7-dihydro-6H-pyrrolo[2,3-d]pyrimidin-6-one] | 8.53 | 96 | 7.34 |
| CC1(c2ccc(O)c(F)c2)C(=O)Nc2nc(-c3cn4ncnc4c(Cc4ccc(F)cc4)n3)nc(N)c21 (stereo not drawn) [Example 41-B, 4-Amino-5-(3-fluoro-4-hydroxyphenyl)-2-{8-[(4-fluorophenyl)methyl]-[1,2,4]triazolo[1,5-a]pyrazin-6-yl}-5-methyl-5,7-dihydro-6H-pyrrolo[2,3-d]pyrimidin-6-one] | 9.31 | 136 | 6.23 |
| CC1(c2cc(O)c(Cl)c(F)c2)C(=O)Nc2nc(-c3cn4ncnc4c(Cc4ccccc4F)n3)nc(N)c21 (stereo not drawn) [Example 10-B, 4-Amino-5-(4-chloro-3-fluoro-5-hydroxyphenyl)-2-{8-[(2-fluorophenyl)methyl]-[1,2,4]triazolo[1,5-a]pyrazin-6-yl}-5-methyl-5,7-dihydro-6H-pyrrolo[2,3-d]pyrimidin-6-one] | 9.89 | 132 | 7.60 |
| CCCCc1nc(-c2nc(N)c3c(n2)NC(=O)C3(C)c2ccc(O)c(Cl)c2)cn2ncnc12 (stereo not drawn) [Example 74-B, 4-Amino-2-(8-butyl-[1,2,4]triazolo[1,5-a]pyrazin-6-yl)-5-(3-chloro-4-hydroxyphenyl)-5-methyl-5,7-dihydro-6H-pyrrolo[2,3-d]pyrimidin-6-one] | 8.21 | 122 | 6.88 |
| CC1(c2ccc(Cl)c(O)c2)C(=O)Nc2nc(-c3cn4ncnc4c(CCCC(F)(F)F)n3)nc(N)c21 (stereo not drawn) [Example 87-A, 4-Amino-5-(4-chloro-3-hydroxyphenyl)-5-methyl-2-(8-(4,4,4-trifluorobutyl)-[1,2,4]triazolo[1,5-a]pyrazin-6-yl)-5,7-dihydro-6H-pyrrolo[2,3-d]pyrimidin-6-one] | 8.55 | 111 | 6.03 |

Results, then the compound that gave them:

| pKi [1] | Emax (sGC α1/β1 heterodimer) [%] | pEC50 (sGC α1/β1 heterodimer) | SMILES |
| --- | --- | --- | --- |
| 9.13 | 111 | 6.44 | CC1(c2ccc(Cl)c(O)n2)C(=O)Nc2nc(-c3cn4ccnc4c(CC4CCCCC4)n3)nc(N)c21 (stereo not drawn) [Example 49-A, 4-Amino-5-(5-chloro-6-hydroxypyridin-2-yl)-2-(8-(cyclohexylmethyl)imidazo[1,2-a]pyrazin-6-yl)-5-methyl-5,7-dihydro-6H-pyrrolo[2,3-d]pyrimidin-6-one] |
| 8.08 | 73 | 5.48 | CC1(c2cc(O)c(Cl)cn2)C(=O)Nc2nc(-c3cn4ccnc4c(Cc4c(F)cccc4F)n3)nc(N)c21 (stereo not drawn) [Example 98-B, 4-Amino-5-(5-chloro-4-hydroxypyridin-2-yl)-2-{8-[(2,6-difluorophenyl)methyl]imidazo[1,2-a]pyrazin-6-yl}-5-methyl-5,7-dihydro-6H-pyrrolo[2,3-d]pyrimidin-6-one] |
| 8.92 | 113 | 6.01 | CC1(c2ccc(Cl)c(O)c2)C(=O)Nc2nc(-c3cn4ccnc4c(CCCC(F)(F)F)n3)nc(N)c21 (stereo not drawn) [Example 55-A, 4-Amino-5-(4-chloro-3-hydroxyphenyl)-5-methyl-2-(8-(4,4,4-trifluorobutyl)imidazo[1,2-a]pyrazin-6-yl)-5,7-dihydro-6H-pyrrolo[2,3-d]pyrimidin-6-one] |
| 9.06 | 85 | 6.84 | CCCCc1nc(-c2nc(N)c3c(n2)NC(=O)C3(C)c2ccc(Cl)c(O)c2)cn2ccnc12 (stereo not drawn) [Example 52-A, 4-Amino-2-(8-butylimidazo[1,2-a]pyrazin-6-yl)-5-(4-chloro-3-hydroxyphenyl)-5-methyl-5,7-dihydro-6H-pyrrolo[2,3-d]pyrimidin-6-one] |
| 8.76 | 86 | 5.81 | CC1(c2nccc(O)c2Cl)C(=O)Nc2nc(-c3cn4ccnc4c(Cc4cc(F)cc(F)c4)n3)nc(N)c21 (stereo not drawn) [Example 111-B, 4-Amino-5-(3-chloro-4-hydroxypyridin-2-yl)-2-{8-[(3,5-difluorophenyl)-methyl]imidazo[1,2-a]-pyrazin-6-yl}-5-methyl-5,7-dihydro-6H-pyrrolo-[2,3-d]pyrimidin-6-one] |
| 9.19 | 137 | 5.92 | CC1(c2ccc(O)c(F)c2)C(=O)Nc2nc(-c3cn4ccnc4c(Cc4ccccc4)n3)nc(N)c21 (stereo not drawn) [Example 128-B, 4-Amino-2-(8-benzyl-imidazo[1,2-a]pyrazin-6-yl)-5-(3-fluoro-4-hydroxyphenyl)-5-methyl-5,7-dihydro-6H-pyrrolo[2,3-d]-pyrimidin-6-one] |
| 8.06 | 99 | 6.19 | CC1(c2ccc(O)c(Cl)c2)C(=O)Nc2nc(-c3cn4ccnc4c(CCC4CCCCC4)n3)nc(N)c21 (stereo not drawn) [Example 77-B, 4-Amino-5-(3-chloro-4-hydroxyphenyl)-2-(8-(2-cyclohexylethyl)imidazo[1,2-a]pyrazin-6-yl)-5-methyl-5,7-dihydro-6H-pyrrolo[2,3-d]pyrimidin-6-one] |
| 9.76 | 78 | 6.64 | CC1(c2cc(O)c(Cl)cn2)C(=O)Nc2nc(-c3cn4ccnc4c(Cc4cc(F)cc(F)c4F)n3)nc(N)c21 (stereo not drawn) [Example 103-B, 4-Amino-5-(5-chloro-4-hydroxypyridin-2-yl)-5-methyl-2-{8-[(2,3,5-trifluorophenyl)methyl]imidazo[1,2-a]pyrazin-6-yl}-5,7-dihydro-6H-pyrrolo[2,3-d]pyrimidin-6-one] |
| 8.77 | 109 | 6.47 | CC(C)CCc1nc(-c2nc(N)c3c(n2)NC(=O)C3(C)c2cccc(O)c2)cn2ccnc12 (stereo not drawn) [Example 59-B, 4-Amino-5-(3-hydroxyphenyl)-2-(8-isopentylimidazo[1,2-a]pyrazin-6-yl)-5-methyl-5,7-dihydro-6H-pyrrolo[2,3-d]pyrimidin-6-one] |
| 9.76 | 130 | 6.90 | CC1(c2ccc(Cl)c(O)c2)C(=O)Nc2nc(-c3cn4ccnc4c(Cc4ccc(F)c(F)c4)n3)nc(N)c21 (stereo not drawn) [Example 20-A, 4-Amino-5-(4-chloro-3-hydroxyphenyl)-2-{8-[(3,4-difluorophenyl)methyl]imidazo[1,2-a]pyrazin-6-yl}-5-methyl-5,7-dihydro-6H-pyrrolo[2,3-d]pyrimidin-6-one] |
| 8.58 | 134 | 6.14 | CC1(c2ccc(Cl)c(O)c2Cl)C(=O)Nc2nc(-c3cn4ncnc4c(CC4CCCCC4)n3)nc(N)c21 (stereo not drawn) [Example 67-A, 4-Amino-2-(8-(cyclohexylmethyl)-[1,2,4]triazolo[1,5-a]pyrazin-6-yl)-5-(2,4-dichloro-3-hydroxyphenyl)-5-methyl-5,7-dihydro-6H-pyrrolo[2,3-d]pyrimidin-6-one] |
